In this experiment the target is T1, β-secretase (BACE) (Homo sapiens, UniProt P56817).
T1 construct: purchased Panvera
Kind of experiment: BACE FS1 % Inhibition Assay. Type of experiment: biochemical. As to the method:
The following reagents were used in this assay: sodium acetate, PEG8000 (Sigma), DMSO, HEPES, FS1 substrate [[…]] […] The FS1-substrate stock solution was prepared in DMSO as a 10 mg/mL solution. The FS1-substrate working solution was prepared by diluting the 10 mg/mL stock solution with substrate assay buffer to a final concentration of 300 μg/mL. The β-secretase (BACE) working solution was prepared by diluting a 0.83 mg/mL BACE stock solution with enzyme assay buffer to a final concentration of 4 μg/mL. Test compounds were dissolved in DMSO to 10 mM. […] The screening procedure for this assay was as follows: 15 μL of BACE working solution was pipetted into each well of a 96-well plate. To each well was then pipetted 2 μL of test compound at the selected concentration. Test compound and BACE were then mixed with a pipettor and incubated for 20 min at room temperature. To each well was then added 10 μL of the FS1 substrate working solution. The plates were then incubated for 1 hour at room temperature. […] The procedure for the blank was as follows. 15 μL of assay buffer was pipetted into each well to be used as a blank control. To each well was then added 2 μL of vehicle and 10 μL of FS1-substrate working solution. The plates were then incubated for 1 hour at room temperature. […] The procedure for the positive control was as follows: 15 μL of BACE working solution was pipetted into each well to be used as a positive control. To each well was then pipetted 2 μL of vehicle. Vehicle and BACE were then mixed with a pipettor and incubated for 20 min at room temperature. To each well was then added 10 μL of the FS1 substrate working solution. The plates were then incubated for 1 hour at room temperature. […] For test compounds, % inhibition was determined at each concentration as follows: [formula]

T1 sequence (P56817 46-501): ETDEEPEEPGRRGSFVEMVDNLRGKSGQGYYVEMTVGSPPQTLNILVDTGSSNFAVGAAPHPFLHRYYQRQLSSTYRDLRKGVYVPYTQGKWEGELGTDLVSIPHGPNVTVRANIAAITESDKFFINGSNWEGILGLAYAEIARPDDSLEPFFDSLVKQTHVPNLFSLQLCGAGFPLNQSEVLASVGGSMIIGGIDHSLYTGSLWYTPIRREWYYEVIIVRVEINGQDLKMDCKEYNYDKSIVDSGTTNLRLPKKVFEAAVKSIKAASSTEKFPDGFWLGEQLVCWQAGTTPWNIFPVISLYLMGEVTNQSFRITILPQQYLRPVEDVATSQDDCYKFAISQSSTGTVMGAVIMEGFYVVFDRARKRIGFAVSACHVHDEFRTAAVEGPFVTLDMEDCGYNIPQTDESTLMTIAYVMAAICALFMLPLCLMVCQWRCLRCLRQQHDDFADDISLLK

Turning to `COc1ccccc1-c1ccc2c(c1)CN(CCNC(=O)C1CCOCC1)C(N)=N2` [Compound 697], the “% Inhibition (FS)” value (0.3 μM compound, FS1 substrate) is on record as less than 30%; the “% Inhibition (FS)” value (1 μM compound, FS1 substrate) was less than 30%; the “% Inhibition (FS)” value (3 μM compound, FS1 substrate) turned out to be 63%.
For the molecule `CN(C(=O)c1cccc(CN2Cc3cc(Sc4ccc5ccccc5c4)ccc3N=C2N)c1)C1CCCCC1` [Compound 415], the “% Inhibition (FS)” value by setting is: (0.3 μM test compound) less than 30%; (1 μM test compound) less than 30%; (3 μM test compound) 63%.
On to `COc1ccccc1-c1ccc2c(c1)CN(CCNC(=O)C1CCC(C(F)(F)F)CC1)C(N)=N2` (centres unmarked) [Compound 698], for which the “% Inhibition (FS)” value is less than 30% (0.3 μM compound, FS1 substrate); less than 30% (1 μM compound, FS1 substrate); 64% (3 μM compound, FS1 substrate).
`NC1=Nc2ccc(-c3ccccc3Cl)cc2CN1CCNC(=O)CCC(F)(F)F` [Compound 682]: the “% Inhibition (FS)” value came out at 39% (0.3 μM compound, FS1 substrate); 77% (1 μM compound, FS1 substrate); 97% (3 μM compound, FS1 substrate).
Take `CN1CCC(N(C)C(=O)c2cccc(C(c3ccccc3)N3Cc4cc(Oc5ccccc5)ccc4N=C3N)c2)CC1` (centres unmarked) [Compound 316]: the “% Inhibition (FS)” value runs as follows: (0.3 μM test compound) less than 30%; (1 μM test compound) less than 30%; (3 μM test compound) less than 30%.
Consider `CN(C(=O)c1cccc(CN2Cc3cc(-c4ccccc4OCc4ccccc4)ccc3N=C2N)c1)C1CCCCC1` [Compound 327], for which the “% Inhibition (FS)” value (0.3 μM test compound) is recorded as less than 30%, the “% Inhibition (FS)” value (1 μM test compound) was less than 30% and the “% Inhibition (FS)” value (3 μM test compound) came to 48%.
`Cc1ccccc1-c1ccc2c(c1)CN(CCNC(=O)CC(C)C(F)(F)F)C(N)=N2` (centres unmarked) [Compound 679]: the “% Inhibition (FS)” value runs as follows: (0.3 μM compound, FS1 substrate) 78%; (1 μM compound, FS1 substrate) 99%.
On to `NC1=Nc2ccc(Oc3ccccc3)cc2CN1Cc1cccc(CNC(=O)C2CCCCC2)c1` [Compound 306], for which the “% Inhibition (FS)” value is given as less than 30% (0.3 μM test compound), less than 30% (1 μM test compound) and 46% (3 μM test compound).
On to `CC(C)CCC(=O)N1CCCC(N2Cc3cc(Oc4ccccc4)ccc3N=C2N)C1` (centres unmarked) [Compound 613], for which the “% Inhibition (FS)” value is given as 36% (0.3 μM test compound), 31% (1 μM test compound) and less than 30% (3 μM test compound).
The matching figures for `Cc1cc(C(=O)NCCN2Cc3cc(-c4ccccc4)ccc3N=C2N)c(C)o1` [Compound 586]: less than 30%, less than 30% and 59%.
The matching figures for `CCCc1cccc(C)c1Oc1ccc2c(c1)CN(Cc1cccc(C(=O)N(C)C3CCCCC3)c1)C(N)=N2` [Compound 482]: less than 30%, less than 30% and 43%.
For `NC1=Nc2ccc(Oc3ccccc3)cc2CN1C1CCN(C(=O)C2CCCCC2)C1` (centres unmarked) [Compound 119], the “% Inhibition (FS)” value is, setting by setting: (3 μM test compound) 42%; (10 μM test compound) 75%.
As for `COC(=O)C(COCc1ccccc1)N(C)C(=O)CCC(C1CCCCC1)N1Cc2cc(Oc3ccccc3)ccc2N=C1N` (centres unmarked) [Compound 780], the “% Inhibition (FS)” value was determined as 69% (0.3 μM compound, FS1 substrate) and 97% (1 μM compound, FS1 substrate).
Consider `NC1=Nc2ccc(Oc3ccccc3)cc2CN1C(CC(=O)NC1CCCCC1)C1CCCCC1` (centres unmarked) [Compound 300], for which the “% Inhibition (FS)” value is less than 30% (0.3 μM test compound), less than 30% (1 μM test compound) and 77% (3 μM test compound).
`CCCC(=O)NCCN1Cc2cc(-c3ccccc3C)ccc2N=C1N` [Compound 659]: the “% Inhibition (FS)” value is 43% (0.3 μM test compound), 69% (1 μM test compound) and 100% (3 μM test compound).
Take `CCc1ccccc1-c1ccc2c(c1)CN(Cc1cccc(C(=O)N(C)C3CCCCC3)c1)C(N)=N2` [Compound 320]: the “% Inhibition (FS)” value reads like this: (0.3 μM test compound) −31%; (1 μM test compound) less than 30%; (3 μM test compound) less than 30%.
`CCCC(=O)NCCN1Cc2cc(-c3ccccc3F)ccc2N=C1N` [Compound 645]: the “% Inhibition (FS)” value by setting is: (0.3 μM test compound) 67%; (1 μM test compound) 57%; (3 μM test compound) 91%.
For `CN(C(=O)CCC(C)(C)N1Cc2cc(Oc3ccccc3)ccc2N=C1N)C1CCCCC1` [Compound 738], the “% Inhibition (FS)” value reads like this: (0.3 μM compound, FS1 substrate) 14%; (1 μM compound, FS1 substrate) 28%; (3 μM compound, FS1 substrate) 61%.
For the molecule `C=CCc1cccc(OC)c1Oc1ccc2c(c1)CN(Cc1cccc(C(=O)N(C)C3CCCCC3)c1)C(N)=N2` [Compound 481], the “% Inhibition (FS)” value (0.3 μM test compound) is less than 30%, the “% Inhibition (FS)” value (1 μM test compound) was less than 30% and the “% Inhibition (FS)” value (3 μM test compound) is recorded as 32%.
Take `CN(C(=O)c1cccc(CN2Cc3cc(-c4ccccc4-c4ccccc4)ccc3N=C2N)c1)C1CCCCC1` [Compound 321]: the “% Inhibition (FS)” value was −33% (0.3 μM test compound), less than 30% (1 μM test compound) and less than 30% (3 μM test compound).
As to `NC1=Nc2ccc(-c3ccc(Cl)cc3)cc2CN1CCNC(=O)C1CCCCC1` [Compound 626], the “% Inhibition (FS)” value is less than 30% (0.3 μM test compound), less than 30% (1 μM test compound) and 56% (3 μM test compound).
As for `CCCC(CCC)C(=O)N1CCCC(N2Cc3cc(Oc4ccccc4)ccc3N=C2N)C1` (centres unmarked) [Compound 612], the “% Inhibition (FS)” value is listed as less than 30% (0.3 μM test compound), 34% (1 μM test compound) and less than 30% (3 μM test compound).
For the molecule `CCCCC(CC)C(=O)NCCN1Cc2cc(-c3ccccc3Cl)ccc2N=C1N` (centres unmarked) [Compound 655], the “% Inhibition (FS)” value is listed as 45% (0.3 μM test compound), 79% (1 μM test compound) and 104% (3 μM test compound).
For `COc1ccc(Nc2ccc3c(c2)CN(Cc2cccc(C(=O)N(C)C4CCCCC4)c2)C(N)=N3)cc1` [Compound 434], the “% Inhibition (FS)” value is, setting by setting: (0.3 μM test compound) less than 30%; (1 μM test compound) less than 30%; (3 μM test compound) less than 30%.
On to `CC(=O)N1CCC(C(=O)NCCN2Cc3cc(-c4ccccc4)ccc3N=C2N)CC1` [Compound 702], for which the “% Inhibition (FS)” value reads like this: (0.3 μM compound, FS1 substrate) less than 30%; (1 μM compound, FS1 substrate) less than 30%; (3 μM compound, FS1 substrate) less than 30%.
As for `CSc1ccccc1-c1ccc2c(c1)CN(CCNC(=O)C1CCCCC1)C(N)=N2` [Compound 540], the “% Inhibition (FS)” value by setting is: (0.3 μM test compound) less than 30%; (1 μM test compound) 30%; (3 μM test compound) 84%.
On to `CN(C(=O)c1cccc(C(CC2CCCCC2)N2Cc3cc(Oc4ccccc4)ccc3N=C2N)c1)C1CCCCC1` (centres unmarked) [Compound 310], for which the “% Inhibition (FS)” value is less than 30% (0.3 μM test compound), less than 30% (1 μM test compound) and 57% (3 μM test compound).
For the molecule `CN1CCCC1CCNC(=O)c1cccc(CN2Cc3cc(Oc4ccccc4)ccc3N=C2N)c1` (centres unmarked) [Compound 222], the “% Inhibition (FS)” value by setting is: (0.3 μM test compound) less than 30%; (1 μM test compound) less than 30%; (3 μM test compound) less than 30%.
As for `CC(=O)Nc1cccc(Oc2ccc3c(c2)CN(Cc2cccc(C(=O)N(C)C4CCCCC4)c2)C(N)=N3)c1` [Compound 229], the “% Inhibition (FS)” value reads like this: (0.3 μM test compound) less than 30%; (1 μM test compound) 35%; (3 μM test compound) less than 30%.
On to `CN(C(=O)c1cccc(CN2Cc3cc(OC4CCCC4)ccc3N=C2N)c1)C1CCCCC1` [Compound 520], for which the “% Inhibition (FS)” value runs as follows: (0.3 μM test compound) less than 30%; (1 μM test compound) less than 30%; (3 μM test compound) 33%.
With `CN(C(=O)CCC(C1CCCCC1)N1Cc2cc(Oc3ccccc3)ccc2N=C1N)C1CCC(c2nn[nH]n2)CC1` (centres unmarked) [Compound 770], the “% Inhibition (FS)” value is, setting by setting: (0.3 μM compound, FS1 substrate) less than 30%; (1 μM compound, FS1 substrate) less than 30%; (3 μM compound, FS1 substrate) less than 30%.
For `CCCC(=O)NCCN1Cc2cc(-c3ccncc3)ccc2N=C1N` [Compound 570], the “% Inhibition (FS)” value is listed as less than 30% (0.3 μM test compound), less than 30% (1 μM test compound) and less than 30% (3 μM test compound).
For the molecule `Cc1ccccc1-c1ccc2c(c1)CN(CCNC(=O)CCC(F)(F)F)C(N)=N2` [Compound 678], the “% Inhibition (FS)” value reads like this: (0.3 μM compound, FS1 substrate) 51%; (1 μM compound, FS1 substrate) 88%; (3 μM compound, FS1 substrate) 99%.
Turning to `CN(C)c1ccc(Nc2ccc3c(c2)CN(Cc2cccc(C(=O)N(C)C4CCCCC4)c2)C(N)=N3)cc1` [Compound 438], the “% Inhibition (FS)” value is recorded as less than 30% (0.3 μM test compound), less than 30% (1 μM test compound) and less than 30% (3 μM test compound).
In the case of `NC1=Nc2ccc(Oc3ccccc3)cc2CN1CCCNC(=O)C1CC1` [Compound 143], the “% Inhibition (FS)” value is, setting by setting: (3 μM test compound) less than 30%; (10 μM test compound) 32%.
For `CC1CCC(C(=O)NCCN2Cc3cc(Oc4ccccc4)ccc3N=C2N)CC1` (centres unmarked) [Compound 191], the “% Inhibition (FS)” value runs as follows: (0.3 μM test compound) less than 30%; (1 μM test compound) 46%; (3 μM test compound) 88%.
The matching figures for `CN(C(=O)c1cccc(CN2Cc3cc(-c4cn[nH]c4)ccc3N=C2N)c1)C1CCCCC1` [Compound 161]: less than 30%, less than 30% and less than 30%.

These data come from patent US8426429B2, “2-amino-quinazoline derivatives useful as inhibitors of β-secretase (BACE)” (Jansssen Pharmaceutica N.V., priority 2004, dated 2013).
